In ChEMBL document CHEMBL5537117, “Novel 3-hydroxypyridin-4(1H)-One derivatives as ferroptosis inhibitors with iron-chelating and reactive oxygen species scavenging activities and therapeutic effect in cisplatin-induced cytotoxicity” (Eur J Med Chem, 2024):
Activity calls are given as the source filed them. The calls are words filed in the database; no cut-off is given here.

Experiments:
[1] = Antioxidant activity assessed as ABTS radical scavenging activity incubated in dark for 6 mins by absorbance based microplate reader analysis; type: functional
[2] = Antioxidant activity assessed as trolox equivalent of ORAC radical scavenging activity at 8 uM; type: functional
[3] = Antioxidant activity assessed as trolox equivalent of ORAC radical scavenging activity at 4 uM; type: functional
[4] = Acid dissociation constant, pKa1 of the compound in 0.1M KCl at pH 2.0 to 10.5 by UV absorption method; type: physicochemical
[5] = Acid dissociation constant, pKa2 of the compound in 0.1M KCl at pH 2.0 to 10.5 by UV absorption method; type: physicochemical
[6] = Acid dissociation constant, pKa3 of the compound in 0.1M KCl at pH 2.0 to 10.5 by UV absorption method; type: physicochemical
[7] = Metal chelating activity assessed as Fe3+ chelation
[8] = Log K1 of the compound in 0.1M KCl at pH 0.9 to 2.1 by UV absorption method; type: physicochemical
[9] = Log K2 of the compound in 0.1M KCl at pH 2.0 to 10.5 by UV absorption method; type: physicochemical
[10] = Log K3 of the compound in 0.1M KCl at pH 2.0 to 10.5 by UV absorption method; type: physicochemical
HT-22 [11] = test: Anti-ferroptotic activity in erastin-induced ferroptosis in mouse HT-22 cells assessed as cell viability incubated for 24 hrs by MTT assay; type: functional, cell-based; conditions: HT-22, 24 h
HT-22 [12] = test: Cytotoxicity against mouse HT-22 cells assessed as reduction in cell viability at 150 uM by MTT assay relative to control; type: toxicity, cell-based; conditions: ht-22, 150 µM
L02 = test: Cytotoxicity against human L02 cells assessed as reduction in cell viability at upto 100 uM by MTT assay; type: toxicity, cell-based; conditions: l02, 100 µM
HEK-293T [13] = test: Protection against cisplatin-induced cytotoxicity in HEK293T cells assessed as cell viability measured after 24 to 48 hrs by MTT assay; type: functional, cell-based; conditions: Homo sapiens
HEK-293T [14] = test: Protection against cisplatin-induced cytotoxicity in HEK293T cells assessed as reduction in attenuation of intracellular Fe2+ at 30 to 80 uM measured after 24 hrs by FeRhoNox-1 based flow cytometry analysis; type: functional, cell-based; conditions: Homo sapiens, dose 30-80 µM
HT-22 [15] = test: Anti-ferroptotic activity against Erastin-induced ferroptosis in mouse HT-22 cells assessed as reduction in ROS accumulation at 100 uM measured after 24 hrs by DCFH-DA based flow cytometry analysis relative to control; type: functional; design: scale not given: the % may be the effect or the level left

Row | SMILES | IC50 [1] | Activity [2] | Activity [3] | pKa [4] | pKa [5] | pKa [6] | Activity [7] | log(activity) [8] | log(activity) [9] | log(activity) [10] | EC50 (HT-22 [11]) | Activity (HT-22 [12]) | Activity (L02) | EC50 (HEK-293T [13]) | Activity (HEK-293T [14]) | Activity (HT-22 [15])
1 | Cc1cccc(/C=C/C(=O)Nn2ccc(=O)c(O)c2C)c1C | 10.2 µM | 13.1 | 7.64 | 2.38 | 7.06 | 10.3 | 17.5 | 14.07 | 26.22 | 35.67 | – | – | – | – | – | –
2 | Cc1c(O)c(=O)ccn1NC(=O)/C=C/c1ccc(F)cc1Cl | 5.01 µM | 4.78 | 2.15 | 2.71 | 6.7 | 10.2 | 17.6 | 14.41 | 26.4 | 35.55 | – | – | – | – | – | –
3 | COc1ccc(/C=C/C(=O)Nn2ccc(=O)c(O)c2C)cc1 | 5.17 µM | 19.4 | 9.42 | 2.42 | 7.41 | 10.3 | 17.1 | 14.01 | 26.09 | 35.52 | 28.9 µM | – | – | – | – | –
4 | Cc1c(O)c(=O)ccn1C [DEFERIPRONE] | 9.7 µM | 9.19 | 4.73 | – | 9.93 | – | 17.9 | 14.12 | 25.8 | 34.97 | 165 µM | > 80% | Non-Toxic | 40 µM | Active | –
5 | Cc1ccc(/C=C/C(=O)Nn2ccc(=O)c(O)c2C)cc1 | 4.79 µM | 2.89 | 0.72 | 2.25 | 7.24 | 10.3 | 16.8 | 13.93 | 26.49 | 34.5 | – | – | – | – | – | –
6 | Cc1c(O)c(=O)ccn1NC(=O)/C=C/c1cccc(Cl)c1 | 4.9 µM | 6.52 | 3.27 | 2.52 | 6.66 | 10.1 | 17.8 | 14.03 | 26.16 | 35.28 | – | – | – | – | – | 100%
7 | Cc1c(O)c(=O)ccn1NC(=O)/C=C/c1ccc(F)cc1 | 4.97 µM | 34.1 | 22.8 | 2.64 | 7.15 | 10.2 | 17.8 | 14.3 | 26.34 | 35.77 | 17.4 µM | > 80% | – | – | – | –
8 | COc1ccc(/C=C/C(=O)Nn2ccc(=O)c(O)c2C)cc1OC | 4.9 µM | 21.1 | 15.7 | 2.29 | 7.33 | 10.2 | 17.3 | 13.89 | 25.87 | 35.17 | 33.5 µM | > 80% | – | – | – | –
9 | Cc1c(O)c(=O)ccn1NC(=O)/C=C/c1ccccc1F | 4.38 µM | 24.9 | 18.1 | 2.4 | 6.74 | 10.3 | 17.6 | 14.34 | 26.41 | 35.75 | 25.8 µM | > 80% | – | – | – | –
10 | Cc1c(O)c(=O)ccn1NC(=O)/C=C/c1cccc(Cl)c1F | 21.8 µM | 1.24 | < 0.1 | – | – | – | – | – | – | – | – | – | – | – | – | –
11 | Cc1c(O)c(=O)ccn1NC(=O)/C=C/c1c(F)cccc1F | 4.81 µM | 5.03 | 2.45 | 2.51 | 6.83 | 10.2 | 17.4 | 14.27 | 26.25 | 35.32 | – | – | – | – | – | –
12 | Cc1c(O)c(=O)ccn1NC(=O)/C=C/c1ccccc1 | 4.8 µM | 11.4 | 6.73 | 2.37 | 7.1 | 10.1 | 17.9 | 13.61 | 25.88 | 35.4 | 72 µM | > 80% | – | – | – | –
13 | Cc1ccccc1/C=C/C(=O)Nn1ccc(=O)c(O)c1C | 4.68 µM | 3.09 | 0.97 | 2.23 | 6.98 | 10.2 | 17.6 | 13.79 | 25.95 | 35.43 | – | – | – | – | – | –
14 | COc1cccc(/C=C/C(=O)Nn2ccc(=O)c(O)c2C)c1 | 4.78 µM | 16.1 | 8.99 | 2.4 | 6.99 | 10.2 | 17.8 | 14.2 | 26.72 | 35.64 | 26.2 µM | > 80% | – | – | – | –
15 | COc1ccc(/C=C/C(=O)Nn2ccc(=O)c(O)c2C)c(F)c1 | > 100 µM | 6.01 | < 0.1 | – | – | – | – | – | – | – | – | – | – | – | – | –
16 | Cc1c(O)c(=O)ccn1NC(=O)/C=C/c1ccc(F)cc1F | 7.51 µM | 2.67 | 1.17 | 2.57 | 6.83 | 10.2 | 17.5 | 14.11 | 26.11 | 35.31 | – | – | – | – | – | –
17 | Cc1c(O)c(=O)ccn1NC(=O)/C=C/c1cc(Cl)ccc1Cl | > 100 µM | 6.56 | 3.06 | 2.48 | 7.34 | 10 | 17.7 | 14.19 | 26.02 | 35.05 | – | – | – | – | – | –
18 | Cc1cccc(C)c1/C=C/C(=O)Nn1ccc(=O)c(O)c1C | 4.88 µM | 5.6 | 2.91 | 2.06 | 6.97 | 10.3 | 16.9 | 13.71 | 25.8 | 35.08 | – | – | – | – | – | –
19 | Oc1ccc(/C=C/c2cc(O)cc(O)c2)cc1 [RESVERATROL] | 5.14 µM | 17.6 | 16.7 | – | – | – | – | – | – | – | – | – | – | – | – | –
20 | Cc1c(O)c(=O)ccn1NC(=O)/C=C/c1ccc(Cl)cc1 | 8.66 µM | < 0.1 | < 0.1 | – | – | – | – | – | – | – | – | – | – | – | – | –
21 | COc1ccccc1/C=C/C(=O)Nn1ccc(=O)c(O)c1C | 4.78 µM | 14.6 | 8.92 | 2.46 | 7.09 | 10.3 | 17.4 | 14.14 | 26.17 | 35.48 | 18.2 µM | > 80% | – | – | – | –
22 | Cc1c(O)c(=O)ccn1NC(=O)/C=C/c1ccc(C(F)(F)F)cc1 | 12 µM | 0.61 | < 0.1 | – | – | – | – | – | – | – | – | – | – | – | – | –
23 | O=C(O)/C=C/c1ccccc1 [CINNAMIC ACID] | > 100 µM | 1.13 | 1.27 | – | – | – | – | – | – | – | – | – | – | – | – | –
24 | Cc1c(O)c(=O)ccn1NC(=O)/C=C/c1ccccc1Cl | 5.14 µM | 6.46 | 2.67 | 2.22 | 6.96 | 10.2 | 17.4 | 14.03 | 26.11 | 35.29 | – | – | – | – | – | –
25 | Cc1c(C)c2c(c(C)c1O)CCC(C)(C(=O)O)O2 (centres undefined) [TROLOX] | 15.3 µM | – | – | – | – | – | – | – | – | – | – | – | – | – | – | –
26 | COc1cc(F)ccc1/C=C/C(=O)Nn1ccc(=O)c(O)c1C | 5.01 µM | 3.83 | 1.21 | 2.34 | 7.02 | 10.4 | 17 | 14.06 | 26.09 | 35.29 | – | – | – | – | – | –
27 | O=C(/C=C/c1ccccc1)c1ccccc1 [CHALCONE] | – | – | – | – | – | – | – | – | – | – | > 500 µM | – | – | – | – | –
28 | Cc1cccc(/C=C/C(=O)Nn2ccc(=O)c(O)c2C)c1 | 4.91 µM | 2.51 | 0.57 | 1.3 | 7.23 | 10.4 | 15.8 | 13.57 | 25.95 | 35.55 | – | – | – | – | – | –
29 | COc1ccc(/C=C/C(=O)Nn2ccc(=O)c(O)c2C)c(OC)c1OC | 6.99 µM | 14.8 | 8.52 | 2.1 | 7.29 | 10.2 | 17 | 13.72 | 25.73 | 35 | 19.6 µM | > 80% | – | – | – | –
